According to article PMC13672995, “NCR13 peptide protects soybean against Cercospora sojina using multi-faceted modes of action and additive interaction with chemical fungicides” (Journal of Experimental Botany, 2025):
Where no end group is shown, it is not given here.

Tests used:
[1] = Heme-peptide binding assay (colour change); conditions: equimolar heme and peptide, 100 µM, 1 h, room temperature
Procedure: Heme solutions were freshly prepared by dissolving hemin chloride (Sigma Cat No: 3741) in 0.1 M NaOH and used within an hour after preparation. Two heme-sequestering peptides, NCR247 and NCR455 ([Montiel et al., 2017]; [Sankari et al., 2022]), were used as positive controls, and water-only treatment as a negative control. The equimolar concentration of heme and peptide (100 µM) or water were mixed and incubated at room temperature for 1 h. When dissolved in NaOH, heme is light to dark brown in color; however, when it binds to a peptide, the color changes to reddish-brown as described by [Sankari et al. (2022)]. The change in color of heme to reddish-brown indicated the heme binding ability of the peptide.

[2] = tested on: C. sojina QoI fungicide-sensitive isolate Cs320; experiment: microbe, parasite or virus in culture; assay type: cell-based, Cercospora sojina; conditions: SFM, ~10^5 conidia ml−1, room temperature, 48 h; resazurin cell viability assay and microscopy
Procedure: In vitro antifungal activity of AFPs and QoI fungicides was determined using 96-well plate assays as described ([Velivelli et al., 2020]) with slight modifications. Briefly, 2- to 3-week-old C. sojina was used to make a conidial suspension in 2× SFM at the final concentration of ∼10^5 conidia ml^−1. Simultaneously, peptide dilutions (in water) at various concentrations were made. Fungicides were dissolved in 50% acetone and 50% water to make a stock solution of 500 µM, and serial dilutions were made in water as needed. The peptide–conidia or the fungicide–conidia mixture at the ratio of 1:1 (45 µl:45 µl) was added in a 96-well plate and incubated at room temperature for 48 h, after which MICs of the peptides/fungicides were calculated based on microscopy as well as the resazurin cell viability assay ([Velivelli et al., 2020]).

[3] = tested on: protein translation in C. sojina Cs350 germlings; experiment: In vivo protein translation inhibition assay (puromycin labeling); assay type: cell-based, Cercospora sojina; conditions: germlings treated 2 h at 6 µM and 12 µM, puromycin 1 mM 3 h; n=3
Procedure: To assess the translation inhibition of NCR13_PFV1 in C. sojina Cs350, we adapted a recently established puromycin labeling protocol in B. cinerea with minor modifications ([Godwin and Shah, 2025]). Cercospora sojina spores at a concentration of ∼10^5 ml^–1 were inoculated in SFM and cultured for 18 h. The germlings were then treated with NCR13_PFV1 (6 µM and 12 µM) or cycloheximide (50 µg ml^–1) (positive control) for 2 h, followed by the addition of puromycin (1 mM) and incubation for 3 h at 28 °C. After incubation, the germlings were washed three times with sterile water. Total proteins were extracted from germlings using lysis buffer (100 mM HEPES, 5 mM EDTA, 0.1% Triton-X 100, and yeast/fungal protease inhibitor cocktail) and the concentration was estimated using the Pierce BCA Protein Assay Kit (Thermo Scientific). Equal amounts (10 µg) of fungal protein were separated on a 4–20% mini-PROTEAN TGX stain-free protein gel (Bio-Rad, Cat No: 4568094). Western blot analysis was performed using an anti-puromycin antibody (Cell Signaling Technology, Cat No: 40939S), and signal intensities were quantified using Fiji ([Schindelin et al., 2012]).

[4] = tested on: C. sojina Cs320 and Cs350 on soybean cv. Blackhawk (FLS); experiment: Pre- and post-inoculation in planta antifungal assays with fungal DNA qPCR; assay type: in vivo, Cercospora sojina
Procedure: For both pre- and post-inoculation in planta antifungal activity assays, 2- to 3-week-old soybean plants cv. Blackhawk (FLS susceptible) grown under a16 h light and 8 h dark cycle were used. For pre-inoculation in planta antifungal activity assay, the second or third trifoliate leaves of soybean plants were first sprayed with 1 ml of NCR13_PFV1 peptide (48 µM) on the abaxial leaf surface followed by spray inoculation with 1 ml of conidial suspension (1×10^5 ml^−1) of azoxystrobin-sensitive Cs320 or -resistant Cs350 isolate. For the post-inoculation in planta antifungal activity assay, the second or third trifoliate leaves of soybean were first spray-inoculated with 1 ml of conidial suspension (1×10^5 ml^−1) followed by spray application of 1 ml of NCR13_PFV1 peptide (48 µM) 2 h later. The mock-treated plants were sprayed with water but no peptide. For both pre- and post-inoculation in planta assays, each treatment consisted of at least four plants and the experiments were performed at least twice. The inoculated plants were kept in a growth chamber under a 16 h light and 8 h dark cycle and 90% relative humidity. The FLS symptoms started to appear 7–10 d post-inoculation and disease scoring was done at 14 d. Diseased leaves were excised from the plant, and both white light and CropReporter (Fv/Fm) images were taken to assess the photosynthetic efficiency of the plant. The leaves were also scored based on a 0–5 scale where: 0=healthy leaves with no leaf spots, 1=1–25% leaf area covered with spots, 2=26–50% leaf area covered with spots, 3=slightly yellow leaves with 51–75% leaf area covered with spots, 4=moderately yellow leaves with 76–95% leaf area covered with spots, and 5=whole leaf is yellow or >96% leaf area covered with spots.
Furthermore, DNA was extracted from the excised leaves to quantify the fungal DNA content using quantitative PCR (PCR). […] DNA quantification in terms of fold change was calculated using the ΔΔCt method ([Livak and Schmittgen, 2001]). […]

[5] = tested on: soybean cv. Blackhawk plants; conditions: 48 µM spray
Procedure: To test the potential phytotoxicity of NCR13_PFV1 spray on soybean plants, 48 µM NCR13_PFV1 or water was first sprayed on 4-week-old soybean cv. Blackhawk plants (2 ml per plant) followed by biweekly sprays at 5 ml per plant until plants were 10 weeks old. When plants reached 12 weeks, photographs were taken for phenotypic analysis and the plants were allowed to mature. Soybean pods were harvested when the plants were all dry and mature, and the number of pods, 100 seed weight, and total seed weight were determined. At least four plants per treatment were tested.

For “TKPCQSDKDCKKFACRKPKVPKCINGFCKCVR (disulfide (positions not given here)) [NCR13_PFV1, chickpea nodule-specific cysteine-rich 32 amino acid peptide, disulfide cross-linking variant 1, expressed in Pichia pastoris]”, the “heme binding (colour change of heme from brown to reddish-brown)” value [1] was “no such color change”, the “MIC (μM) against C. sojina isolates, Fungicide sensitive, Cs320” value [2] was 0.75 µM and the “concentration from which protein translation inhibition was observed” value [3] was 6 µM. For the same sequence, the “fungal biomass in infected leaves (fungal DNA, qPCR)” value ([4]; 48 µM spray, Cs320 and Cs350, P-value ≤0.05) was “significantly reduced biomass”, the “FLS symptoms (disease severity, 0–5 scale)” value ([4]; 48 µM spray, pre- or post-inoculation (2 h), Cs320 or Cs350, scored at 14 d, Wilcoxon, P-value ≤0.05, n=8, r=2) was “significantly reduced” and the “concentration giving the best control of FLS symptoms” value ([4]; preliminary experiments, 12 µM to 48 µM tested) was 48 µM. The “morphology of sprayed plants (growth rate, height, leaf color) compared with water” value ([5]; bi-weekly from the fourth to the 10th week, at least four plants) was “No morphological difference” and the “number of pods, 100 seed weight, total seed yield compared with water” value ([5]; at maturity, Student’s t-test) was “no significant differences”.
